Laboratory results: PubChem BioAssay (NCI)
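Growth conditions: 96-well plates. Treatment: test compound, 48 hours, 5 concentrations. Analysis: linear interpolation between bracketing concentrations; unreached endpoints set to highest concentration. GI50: concentration for 50% inhibition of growth. TGI marks complete inhibition of growth.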

How the values were obtained:
Assay in all cases: NCI-60 cell line screen, 48 h
EKVX NSCLC = system: EKVX NSCLC
A498 renal = system: A498 renal
K-562 leukemia = system: K-562 leukemia
UACC-257 melanoma = system: UACC-257 melanoma
HCT-116 colon = system: HCT-116 colon
SF-268 CNS = system: SF-268 CNS
HS 578T breast = system: HS 578T breast
MOLT-4 leukemia = system: MOLT-4 leukemia
OVCAR-5 ovarian = system: OVCAR-5 ovarian
NCI-H226 lung = system: NCI-H226 lung
HOP-92 NSCLC = system: HOP-92 NSCLC
HOP-62 NSCLC = system: HOP-62 NSCLC
A549 NSCLC = system: A549 NSCLC
SN12C renal = system: SN12C renal
KM12 colon = system: KM12 colon
IGROV1 ovarian = system: IGROV1 ovarian
NCI-H23 lung = system: NCI-H23 lung
OVCAR-8 ovarian = system: OVCAR-8 ovarian
OVCAR-4 ovarian = system: OVCAR-4 ovarian
SR leukemia = system: SR leukemia
SNB-19 CNS = system: SNB-19 CNS
ACHN renal = system: ACHN renal
BT-549 breast = system: BT-549 breast
HT29 colon = system: HT29 colon
NCI/ADR-RES ovarian = system: NCI/ADR-RES ovarian
CCRF-CEM leukemia = system: CCRF-CEM leukemia
SF-539 CNS = system: SF-539 CNS
DU-145 prostate = system: DU-145 prostate
CAKI-1 renal = system: CAKI-1 renal

With `Cc1ccc(-c2cn3ccnc3c(-c3ccc(Cl)cc3)n2)cc1` the GI50 (EKVX NSCLC) was 543 nM, the TGI (EKVX NSCLC) was over 100 µM and the GI50 (A498 renal) was 389 nM. It also gave a TGI (A498 renal) of 8.11 µM, a GI50 (K-562 leukemia) of 35.2 nM and a TGI (K-562 leukemia) of over 100 µM. It also gave a TGI (UACC-257 melanoma) of over 100 µM, a GI50 (HCT-116 colon) of 292 nM and a TGI (HCT-116 colon) of over 33.8 µM. The GI50 (SF-268 CNS) was 88.5 nM, the TGI (SF-268 CNS) was 11.7 µM and the GI50 (HS 578T breast) was 115 nM. The TGI (HS 578T breast) was 9.39 µM, the GI50 (MOLT-4 leukemia) was 81.5 nM and the TGI (MOLT-4 leukemia) was over 100 µM. It also gave a GI50 (OVCAR-5 ovarian) of 14.8 µM, a TGI (OVCAR-5 ovarian) of over 100 µM and a GI50 (NCI-H226 lung) of 10.3 µM. The TGI (NCI-H226 lung) was over 100 µM, the GI50 (HOP-92 NSCLC) was 12.5 µM and the TGI (HOP-92 NSCLC) was over 93.2 µM. The GI50 (HOP-62 NSCLC) was 3.69 µM, the TGI (HOP-62 NSCLC) was over 68.6 µM and the GI50 (A549 NSCLC) was 1330 nM. It also gave a TGI (A549 NSCLC) of over 49.8 µM, a GI50 (SN12C renal) of 532 nM and a TGI (SN12C renal) of 62.5 µM. The GI50 (KM12 colon) was 150 nM, the TGI (KM12 colon) was 16.6 µM and the GI50 (IGROV1 ovarian) was 1550 nM. It also gave a TGI (IGROV1 ovarian) of over 83 µM, a GI50 (NCI-H23 lung) of 433 nM and a TGI (NCI-H23 lung) of 27.6 µM. It also gave a GI50 (OVCAR-8 ovarian) of 1430 nM, a TGI (OVCAR-8 ovarian) of 34.2 µM and a GI50 (OVCAR-4 ovarian) of 14.7 µM. It also gave a TGI (OVCAR-4 ovarian) of over 100 µM, a GI50 (SR leukemia) of 54.8 nM and a GI50 (SNB-19 CNS) of 1390 nM. It also gave a TGI (SNB-19 CNS) of over 65.4 µM, a TGI (ACHN renal) of 22.3 µM and a GI50 (BT-549 breast) of 2300 nM. It also gave a TGI (BT-549 breast) of 65.3 µM, a GI50 (HT29 colon) of 310 nM and a TGI (HT29 colon) of 37.4 µM. It also gave a GI50 (NCI/ADR-RES ovarian) of 102 nM, a TGI (NCI/ADR-RES ovarian) of over 30.6 µM and a GI50 (CCRF-CEM leukemia) of 122 nM. It also gave a TGI (CCRF-CEM leukemia) of over 100 µM, a GI50 (SF-539 CNS) of 42.2 nM and a TGI (SF-539 CNS) of 1350 nM. The GI50 (DU-145 prostate) was 214 nM, the TGI (DU-145 prostate) was 52.9 µM and the GI50 (CAKI-1 renal) was 36.1 nM. It also gave a TGI (CAKI-1 renal) of 2840 nM.
